The values below come from US11485714B2, “Hydroxyethylamine-based piperazine compounds, and methods of producing and using the same for treating disease” (National Institute of Immunology, priority 2020, dated 2022).

Where two headings read alike, the source gives them in different places.

The nature of data set [1]: In vivo acute toxicity study and pathological examination. More on the design: species or system BALB/C mice. The source says: Again mice were randomly divided in two groups. Each group consisted of 3 mice.
Mice were divided into two groups of three mice. […] Again Mice were randomly divided in two groups. Each group consisted of 3 mice. […] Serum was taken for biochemistry studies.

The subject of data set [2] is P. falciparum CQ-sensitive (Pf3D7). Kind of data set: SYBR Green I assay, asynchronous cultures, CQ-sensitive clone. It counts as cell-based. The following applies: Plasmodium falciparum. The method, then:
Initially, antimalarial activity of Compound I was assessed on asynchronous cultures of P. falciparum sensitive (Pf3D7) clone using the SYBR Green assay. […] DMSO was used as a vehicle control, CQ (Chloroquine), DOX (Doxycycline) and DHA (Dihydroartemisinin).

The subject of data set [3] is P. falciparum, strain IPC 3445. Kind of data set: Growth inhibition of ART resistant field strain. Type of data set: cell-based. The note with it: Plasmodium falciparum, 72 h, read-out: IC50, ART resistant strain IPC 3445. The method, then:
Plasmodium falciparum (P. falciparum), strain IPC 3445 was isolated in 2010 from the blood of a human patient with malaria in Pailin province, western Cambodia. Parasites were grown in the lab and tested with different concentrations of the Calxinin and DHA (100 μM-90 nM) for 72 hr incubations.

For data set [4], the system named is P. berghei sporozoites in HepG2 cells. Kind of data set: Liver stage infection in HepG2 cells, qPCR of 18SrRNA. Type of data set: cell-based, Plasmodium berghei. The note with it: for IC50: read-out: in-vitro liver stage IC50. The source says: Liver stage infection in HepG2 cells: Salivary glands of Anopheles stephensi mosquitoes infected with green fluorescent protein (GFP)-expressing P. berghei ANKA (Insectary at National Institute of Immunology, New Delhi, India) were dissected out. Sporozoites were perched in complete medium (Dulbecco's Modified Eagle Medium (DMEM)) with 10% fetal bovine serum (FBS), 3% penicillin-streptomycin (P/S)), and allowed to infect HepG2 cells. The cells were already treated with Calxinin at various concentrations (0.1 μM, 1 μM and 10 μM). The plate was centrifuged at 3000 rpm for 5 minutes to ensure the sporozoites settled down in the plate, and then placed in the incubation at 37° C. for 3 hours. Afterwards, media was replaced with pre-warmed medium (DMEM, 10% FBS, 3% P/S, and 0.1% Fungizone) supplemented with dimethyl sulfoxide (DMSO), and Calxinin at indicated concentrations. After two days, the cells were treated with Trizol and […] at −80° C. RNA isolation followed by reverse transcription polymerase chain reaction (RTPCR) was done to estimate the parasite load in the infected cells.
Compound I was tested in vitro against Plasmodium liver stage parasites. HepG2 cells, a human hepatocyte cell line, were infected with Plasmodium berghie sporozoites (mosquito infective forms of malaria). One set of cells was treated with 0.4, 2.0 and 10.0 micromolar concentration of inhibitor Compound I, and the other set was left untreated. Sporozoite infection time was considered as zero time. Twenty-four hours after infection the culture media was refreshed and the inhibitors were replenished. After forty-eight hours, total cells were harvested and total RNA was extracted by the Trizol™ method. RNA was converted into cDNA and realtime PCR was performed using the parasite 18SrRNA primers. This determined the liver stage parasite burden, which was then converted into percent inhibition by comparing with the untreated set.
Liver schizont stages are the first stage of human infection after injection of sporozoites by mosquitoes. The activity of compounds against this stage offers the important part of the antimalarial therapy, chemoprotection. To evaluate the efficacy of Compound I against liver stage parasites, HepG2 cells were infected with P. berghei sporozoites, in triplicates, and dosed with 0.1, 1, 10 μM of Compound I dissolved in 1% DMSO. The parasite load was quantified in control and Compound I-treated cells by quantitative PCR (qPCR) using parasite specific 18SrRNA primers. […] Inhibitory effect decreases up to 61% while treating cells with 10 μM due to precipitation of compound at higher concentration (FIG. 3). […] The liver stage activity of Compound I is much higher over the current treatments, atovaquone (ATQ) in culture.
(In qPCR the cycle at which signal appears reflects the starting amount.)

The test system of data set [5] is peripheral blood mononuclear cells (PBMCs). Kind of data set: In vitro cytotoxicity, PBMC (MTT, Cell Titer Glo). It counts as cell-based, human. How it is done:
(§1) [6] PBMC were isolated from healthy donors using the Ficoll-Paque™ technique (GE Healthcare Bioscience AB, Uppsala, Sweden) from donor leukopack samples obtained from LUMC blood bank services. […] Robust cells at a concentration of 80,000 cells/ml were plated into 96-well plates and incubated for 24 hours. Cell viability and proliferation was determined by use of both MTT and Cell Titer Glo@ assays for both cell types. MTT assay was conducted by addition of 10 μL MTT solution (5 mg/mL) into each well, incubated for 4 hour at 37° C. followed by addition of 50 μL DMSO to dissolve the formazan precipitate according to the manufacturer's protocol. Aliquots were drawn from each well and color intensity was measured spectrophotometrically in SpectraMax® M5 Multi-Mode Microplate Reader.
(§2) The cytotoxicity of Compound I was tested by exposing peripheral blood mononuclear cells (PBMCs) to drug concentrations corresponding to averages of both Pf3D7 and PfDd2 IC50 values. This was intended to establish whether the observed antiparasitic effects of the compounds were due to non-specific inhibitory activity. […] The IC50 required for killing the parasite is <90 nM. Therefore, in order to be toxic for human cells we have to use over 650 fold concentration.
For orientation: In ATP-based viability assays light output follows the ATP content of the culture.

The nature of data set [6]: In vitro cytotoxicity, PBMC (MTT, Cell Titer Glo). Type of data set: cell-based, human. The note with it: human; PBMCs; read-out: CC50 (50% cell toxicity). The method, then:
as §1, §2

With `NC(Cc1ccccc1)C(O)CN1CCN(Cc2ccc(C(F)(F)F)cc2)CC1` (centres unmarked) [Compound I], the “pathological examination of liver, kidney, stomach” value in data set [1] (300 mg/kg oral for four consecutive days) was “does not indicate an increase or decrease of Kuepfer cells in the liver, loss of structural integrity in the kidney or lining of stomach”. Further, the toxicity overall entry in data set [1] (1200 mg/kg (300 mg/kg for four consecutive days)) is on record as “no indication of toxicity”. The behavior result in data set [1] (oral) was “no behavior changes were observed”. For the same molecule, the body weight result in data set [1] (oral) was “remained constant”. Also, the “motor and feeding activities” value in data set [1] (oral) is reported as “normal”. The IC50 in data set [2] (3D7, read-out: IC50 against asexual stages, drug sensitive (CQ-sensitive) 3D7, text) is 88 nM; in data set [2] (72 h, read-out: Pf3D7 IC50, nM (±SD), asynchronous cultures, 37° C., 72 hours, SYBR Green I), 90 nM; in data set [2] (strain not specified, read-out: IC50 required for killing the parasite), < 90 nM; in data set [3], 0.0926 µM; in data set [4] (Plasmodium berghei, HepG2), 0.079 µM; in data set [4] (listed as Calxinin) it was 0.065 µM. The inhibition at 0.1 µM in data set [4] (Plasmodium berghei, HepG2, 0.1 μM, read-out: inhibition of liver stage parasite load) was ~60%. The inhibition at 1 µM in data set [4] (Plasmodium berghei, HepG2, 1 μM, read-out: inhibition of liver stage parasite load) is ~88%. Also, the inhibition at 10 µM in data set [4] (Plasmodium berghei, HepG2, 10 μM, precipitation of compound, read-out: inhibition of liver stage parasite load) was ≤ 61%. Besides, the “% PBMC viability relative to vehicle control” value in data set [5] (24 hours) was > 100%. Also, the “proliferation of the PBMCs (PBMC)” value in data set [5] (concentration = average of Pf3D7 and PfDd2 IC50, Cell Titer-GLO) worked out at 110.12. Besides, the CC50 at 24 h in data set [6] came out at 1000 µM.

A word on the IC50: it is the concentration at which inhibition is half-maximal. Usually inhibition stands for how much of the control response was suppressed. Broadly, the CC50 is the concentration giving 50% cytotoxicity.
